Measured values as given in PMC2771899, “Augmentation of Reverse Transcription by Integrase through an Interaction with Host Factor, SIP1/Gemin2 Is Critical for HIV-1 Infection” (PLoS ONE, 2009).
Entries after “also recorded” stand apart in the source; their conditions may differ.

Experiments:
HIV-1 RT (GST-RTp66) = experiment: In vitro RT assay, stimulation by IN and SIP1; assay type: biochemical
Experimental: (§1) Figure 4 Augmentation of reverse transcription by HIV-1 IN and SIP1 in vitro. (A, B) The in vitro RT assay was carried out with 35 fmoles of HIV-1 RT (GST-RTp66) in the absence or presence of different amounts of full-length rIN (WT-IN). The truncated form of IN (IN1–70) that lack SIP1 binding domains was also tested in apparel as a control. The amount of HIV-1 cDNA was measured by real-time PCR using the HIV-1 R/U5 (A) or R/gag (B) primer pair. Significant augmentation (p<0.05) by WT-IN in the levels of HIV-1 cDNA compared with the level without IN (0 fmole) was indicated by asterisks. (C) The in vitro RT assay was carried out as described in (A) in either the absence or presence of […] of WT-IN, together with different amounts of rSIP1. (D) The in vitro RT assay was carried out with 3.5 fmoles of WT-IN (black bar) or IN1–70 (slash bar), in either the absence (−) or presence (+) of 50 fmoles of rSIP1. (E) The oligo(dT) cellulose resin was incubated with in vitro transcribed HIV-1 RNA for 1 h. After incubation, 10 µg of GST-RT in either the absence or presence of His-IN or rSIP1 was added and incubated for 2 h. After four washes with the IN storage buffer, precipitates were analyzed by immunoblot analysis using an anti-GST antibody.
For preparation of the viral RNA template for in vitro transcription, the DNA sequences corresponding to HIV-1 lentiviral genomic RNA (pCS-CDF-CG-PRE) were subcloned into pGEM-T vector (pGEM-CS-CDF). Then, the annealed oligonucleotides of TCGA(A)30G and TCGA(T)30C were inserted into the pGEM-CS-CDF vector at the Sal-I site for addition of the poly(A) tail (the pGEM-CS-CDF-PolyA). Synthesized HIV RNA with the poly(A) 30 tail were produced by in vitro transcription using RiboMAX™ Large Scale RNA Production System-T7 (Promega) with Ribo m^7 G Cap analog (Promega) to mimic the capped structure of mRNA. Transcription products of HIV-1 RNA (4.9 kb) were purified with spin columns MicroSpin™ G-25 Columns (American Biosciences), followed by gel-filtration using NAP-5 columns, (American Biosciences) and were used in the in vitro RT assay. The reverse transcription reactions were carried out in a final volume of 20 µl RT reaction buffer consisting of 50 mM Tris-HCl (pH 8.3), 75 mM KCl, 3 mM MgCl2, 10 mM DTT, 1 mM dNTPs, 0.04∼0.4 fmoles of HIV-1 RNA templates and 0.4∼4 fmoles of RNA primer, 3.5∼35 fmol HIV-1 RT (GST-RTp66). The reaction was carried out at 42°C for 30 min in either the absence or presence of different amount of His-IN and recombinant SIP1. The amount of the cDNA product was measured by real-time PCR using primers for the R/U5 or R/gag region.
Supplementary file pone.0007825.s004.pdf: Figure S4 Stoichiometry and order of IN and SIP1 for their stimulatory effect of cDNA synthesis. (A) The in vitro RT assay was carried out in the absence or presence of different amount of the His-IN (0.2 or 1 pmol) or recombinant SIP1 (0.2 or 1 pmol) as described in Figure 4. The amount of cDNA product was measured by real-time PCR using primers for HIV-1 R/U5 region. (B) The in vitro RT assay was carried out with 5 pmoles of His-IN in the absence or presence of different amount SIP1 (1 or 5 pmol). (C) The in vitro RT assay was carried out in the absence or presence of the His-IN and recombinant SIP1 with [α32P]dCTP and subjected to SDS-PAGE analysis in denatured condition. (D) In vitro RT assay was performed as described above, except that rIN with rRT and rSIP1 were pre-incubated on ice in different combinations and orders (inlet Table). Then, reaction was initiated by adding mixture containing the template RNA/PBS-primer and dNTPs. (0.10 MB PDF) Click here for additional data file.

RT on viral RNA = experiment: RT assembly on viral RNA; assay type: biochemical; details: HIV-1 RNA on oligo(dT) cellulose, 10 µg GST-RT, 2 h, immunoblot anti-GST (Figure 4E)
Experimental: as §1
Next, the effects of IN and SIP1 on the assembly of RT on viral RNA was examined. […] Levels of RT on viral RNA were determined by immunoblot assay. […]

RT = experiment: Direct binding to RT; set-up: species or system HIV-1; details: data not shown
rSIP1 = experiment: Dot-blot binding of peptide to SIP1; details: 40 or 400 nmol peptide on nitrocellulose, rSIP1 (5 µg), anti-SIP1 antibody
[1] = test system: IN-SIP1 interaction (His-IN, rSIP1); experiment: Dot-blot inhibition of IN-SIP1 interaction by peptide; assay type: binding, HIV-1
[2] = target: T1, IN-SIP1 mediated RT activity (Homo sapiens, UniProt O14893); experiment: In vitro RT assay, inhibition of IN-SIP1 mediated RT activity by peptide; assay type: biochemical, HIV-1
T1 construct: the SIP1 gene was amplified from pTRE-SIP1 (kindly provided by Dr. G. Dreyfuss) by PCR and cloned into BamHI and EcoRI sites of pGEX-6P-2; GST (N, cleaved yes); made in house; host or cells: E. coli BL21 (GST-SIP1), E. coli M15 (His-IN)
T1 sequence (O14893 1-280): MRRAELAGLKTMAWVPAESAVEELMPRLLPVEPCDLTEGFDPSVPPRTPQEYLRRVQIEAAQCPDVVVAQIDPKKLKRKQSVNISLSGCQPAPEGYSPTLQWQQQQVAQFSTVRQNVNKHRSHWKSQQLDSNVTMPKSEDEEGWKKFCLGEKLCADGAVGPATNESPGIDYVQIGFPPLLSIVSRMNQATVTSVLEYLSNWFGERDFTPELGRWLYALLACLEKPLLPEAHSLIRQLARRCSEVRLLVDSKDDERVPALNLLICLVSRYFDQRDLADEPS

[3] = test system: HIVNL43-luc/VSV-G pseudotypes; assay type: cell-based, HIV-1
HIV-1 cDNA synthesis = assay type: cell-based; details: PMA-stimulated THP-1 cells, 100 µM peptide 16 h before and 6 h during infection; R/U5 and R/gag, 24 h post-infection
MLV cDNA synthesis = assay type: cell-based, Moloney murine leukemia virus; details: PMA-stimulated THP-1 cells, 100 µM peptide, MMLV vector pFB-Luc; R/U5 24 h post-infection; compared with DMSO or control peptide
[4] = test system: viral entry and RT enzymatic activity; experiment: Direct effect on viral entry and RT enzymatic activity; set-up: species or system HIV-1; details: data not shown

| Substance | Effect of SIP1 on RT activity at higher amounts of IN (HIV-1 RT (GST-RTp66); 5 pmoles His-IN, SIP1 1 or 5 pmol (Figure S4B)) | Stimulation of RT activity by SIP1 with IN1–70 (HIV-1 RT (GST-RTp66); 3.5 fmoles IN1–70, 50 fmoles rSIP1, P = 0.98) | Stimulation of RT activity by SIP1 in presence of full-length IN (HIV-1 RT (GST-RTp66); 3.5 fmoles WT-IN, 50 fmoles rSIP1, P = 0.001) | Enhancement of IN-stimulated RT activity by SIP1 (HIV-1 RT (GST-RTp66); WT-IN plus different amounts of rSIP1 (Figure 4C)) | Effect of pre-incubation order on stimulatory effect (HIV-1 RT (GST-RTp66); pre-incubation of RT and IN before SIP1, on ice (Figure S4D)) | Stimulation of RT activity by SIP1 alone (HIV-1 RT (GST-RTp66); without IN, P = 0.69) | Level of RT on viral RNA (RT on viral RNA) | Direct binding to RT (RT) | Direct binding of peptide to rSIP1 (rSIP1) | Peptide concentration that reduces His-WT binding to SIP1 to non-specific background levels ([1]; His-IN (10 µg) on nitrocellulose, 5 µg rSIP1) | Interference with binding of full-length IN (His-WT) to SIP1 ([1]; His-IN (10 µg) on nitrocellulose, 5 µg rSIP1, peptide present) | Inhibitory effect on His-WT binding to SIP1 relative to IN231–251 ([1]; IN60–80 versus IN231–251) | IC50, inhibition of IN-SIP1 mediated RT activity ([2]; 35 fmol RT, 3.5 fmol His-IN, 50 fmol rSIP1, 42°C, 30 min, 20 µl, real-time PCR) [pmoles per reaction] | Effect on IN-SIP1 mediated RT activity ([2]; 35 fmol RT, 3.5 fmol His-IN, 50 fmol rSIP1, cDNA relative to control) | Inhibitory effect on IN-SIP1 mediated RT activity relative to IN231–251 ([2]; IN60–80 versus IN231–251) | Effect on IN-mediated RT stimulatory effect and HIV-1 replication ([2]; summary statement) | HIV-1 infectivity, % of control [3] | Viral cDNA synthesis, % of control (HIV-1 cDNA synthesis) | Effect on MLV cDNA synthesis (MLV cDNA synthesis) | Direct effect on viral entry and RT enzymatic activity [4] |
| --- | --- | --- | --- | --- | --- | --- | --- | --- | --- | --- | --- | --- | --- | --- | --- | --- | --- | --- | --- | --- |
| SIP1: survival motor neuron-interacting protein 1, recombinant | not evident; also recorded: could not observed when high amount of IN protein was present | no significant | Significant stimulation of RT activity | further enhanced by SIP1 in a dose-dependent manner | most effective stimulatory effect | no significant | enhanced RT assembly on viral RNA | cannot bind to RT directly |  |  |  |  |  |  |  |  |  |  |  |  |
| IN60–80: synthetic peptide corresponding to the residues of 60–80 of HIV-1 IN (IWQLDCTHLEGKVILVAVHVA; Integrase; UniProt P04585 1207-1227, looked up, fragment) |  |  |  |  |  |  |  |  | efficiently bound to rSIP1 | About 5 µM | significantly interfered with the binding of the full-length IN (His-WT) to the SIP1 protein | more than 10 times | ~10 | significantly reduced the IN-SIP1 mediated RT activity in a dose-dependent manner | more than 100 times | specifically block IN-mediated RT stimulatory effect and HIV-1 replication | 20–25 % of control | less than 25 % of control | no significant inhibitory effect | does not directly suppress viral entry and RT enzymatic activity |
